Results from patent US20160128988A1, “COMBINATIONS FOR THE TREATMENT OF CANCER COMPRISING A MPS-1 KINASE INHIBITOR AND A MITOTIC INHIBITOR” (BAYER PHARMA AKTIENGESELLSCHAFT, priority 2013, published 2016).
Where two headings read alike, the source gives them in different places.

Columns and labels:
[1] = system: human glioblastoma model U87 MG; assay: Combination with vincristine in human glioblastoma model U87 MG (intracerebral); format: in vivo, nude mice
Experimental: The study was designed to determine the response of this glioblastoma model to the treatment with the investigational Compound A1 and vincristine, both alone at a fixed dose, and vincristine in combination with two different doses, both lower than that of Compound A1 used in the monotherapy schedule. The size of the glioblastoma was used as read out parameter for response.
The cell culture derived human xenograft U87 MG was initiated by transplantation of the tumor cells into the left hemisphere of the mouse brain. Treatment was done in three cycles between day 3 and day 19. Mice were sacrificed at day 24, the brain isolated and shock frozen in 2 methyl-butane. Tumor size were determined as measure for tumor growth inhibition from cryo-slizes after staining.

[2] = system: NCI-H1299 human NSCLC xenograft tumors
Experimental: The effect of combination treatment of an Mps-1 inhibitor and paclitaxel was studied in the NCI-H1299 taxane intrinsically resistant human lung carcinoma (NSCLC) xenograft model in nude mice.
Paclitaxel was applied intravenously once per week upon its respective MTD. Substances were formulated in optimal vehicles to achieve solutions. Animal body weight and tumor size were determined two to three times weekly. […] For combination treatment, the Compound A1 and paclitaxel were applied at the same day within a time frame of 4 hours. Animals of control and monotherapy group (Compound A1 only) were treated for a duration of 28 days. Animals of paclitaxel monotherapy and paclitaxel/Mps-1 inhibitor treatment groups were treated for a duration of 37 days. At the end of the study after one final treatment plasma and tumors were sampled for PK analysis and final tumor weight was determined.
(§1) FIGS. 1A and 1B show the response of NCI-H1299 human NSCLC xenograft tumors to treatment with Compound A1 in combination with paclitaxel. NCI-H1299 human NSCLC tumor cells were implanted s.c. into nude mice on day 0. […] Compound A1 was administered orally (p.o.) upon 0.45 mg/kg twice daily (2QD) for 2 days on/5 days off (2 on/5 off) in monotherapy and in combination with paclitaxel. Paclitaxel was administered intravenously (i.v.) upon 20 mg/kg once daily (QD) once per week (1 on/6 off) in monotherapy and combination therapy. Tumor growth was monitored by determination of the tumor area using calliper measurement two to three times weekly. FIG. 1A: Time course of tumor growth. FIG. 1B: Time course of animal body weight change during the course of the study.

[3] = system: cisplatin-resistant ovarian cancer cells A2780cis; assay: Mode of action: histopathology of A2780cis tumors after treatment; conditions: Compound A1 single agent 2.5 mg/kg PO 2QD 2 days on/5 days off, samples 24 hours after first administration
Experimental: To explain in vivo the mode of action of an Mps-1 kinase inhibitor in single-agent treatment and combination treatment with a taxane, female NMRI (Naval Medical Research Institute) nude mice were implanted with cisplatin-resistant ovarian cancer cells A2780cis.
Paclitaxel was administered IV (intravenous(ly)) QW (once per week (meaning the 1 day on/6 days off treatment schedule)) at its MTD (24 mg/kg) in single-agent and combination treatments. […] Tumors were embedded in paraffin, sections were prepared and stained with hematoxylin & eosin for histopathological analysis.

[4] = system: NCI-H1299 human NSCLC xenograft tumors; remark: listed apart in the source
Text: The effect of combination treatment of an Mps-1 kinase inhibitor (Compound A1) with docetaxel, another SAC activating, […], anti-mitotic agent, used as standard of care in NSCLC patients, was studied in the NCI-H1299 taxane intrinsically resistant human lung carcinoma (NSCLC) xenograft model in nude mice.
Docetaxel was applied intravenously once per week upon its respective MTD. Substances were formulated in optimal vehicles to achieve solutions. Animal body weight and tumor size were determined two times weekly. […] For combination treatment Compound A1and docetaxel were applied at the same day within a time frame of 4 hours. Animals of control and Mps-1 kinase inhibitor monotherapy group were treated for a duration of 20 days. Animals of docetaxel monotherapy and docetaxel/Mps-1 kinase inhibitor combination treatment groups were treated for a duration of 42 days. At the end of the study after one final treatment plasma and tumors were sampled for PK analysis and final tumor weight was determined.
as §1, with “NCI-H1299” for “FIGS. 1A and 1B show the response of NCI-H1299 human NSCLC xenograft tumors to treatment with Compound A1 in combination with paclitaxel. NCI-H1299”, “2.0” for “0.45”, “docetaxel. Docetaxel” for “paclitaxel. Paclitaxel”, “15” for “20”, “2A:” for “1A:”, “2B: Weight of tumors in docetaxel/Mps-1 kinase inhibitor combination group at the end of the study at day 52 after tumor cell inoculation. FIG. 2C:” for “1B:”

[5] = system: A2780 human ovarian carcinoma model; format: in vivo; conditions: Compound A1 single agent 1 mg/kg and 2.5 mg/kg (8 days); triple combination (17 treatment days)
Experimental: Cisplatin and paclitaxel were administered in combination at their respective MTD, cisplatin intraperitoneally (IP) every second week (Q2W) and paclitaxel IV QW.

[6] = day 24, single agents: Gr. B Compound A1 2.5 mg/kg p.o., Gr. C Vincristine 0.75 mg/kg i.p.
[7] = Compound A1 0.45 mg/kg 2QD 2on/5off p.o., paclitaxel 20 mg/kg QD 1on/6off i.v.
[8] = Compound A1 2 mg/kg 2QD 2on/5off p.o., docetaxel 15 mg/kg QD 1on/6off i.v.

`COc1cc(S(C)(=O)=O)ccc1Nc1nc2ccc(-c3ccc(NC(=O)[C@H](C)c4ccc(F)cc4)cc3)cn2n1` [Compound A1] was tested, and the “tumor growth inhibition (in words)” value ([1]; Compound A1 single drug 2.5 mg/kg, combination with vincristine) was “no inhibitory effect”, the “BWC [%] (at day), nadir of body weight” value ([1]; Gr. B: Compound A1 2.5 mg/kg p.o. BIDx2x3) was −7.7 (d24) % and the “Brain tumor inside [mm^2]” value ([1]; day 24, single agents: Gr. B Compound A1 2.5 mg/kg p.o. BIDx2x3, Gr. C Vincristine 0.75 mg/kg i.p. 1xqWx3) was 15.89 +/− 9.93 mm^2. For the same molecule, the “Brain tumor outside [mm^2]” value [1, 6] was 5.50 +/− 4.09 mm^2, the “Brain tumor total [mm^2]” value [1, 6] was 20.64 +/− 12.14 mm^2 and the “T/C (inside T) [%]” value [1, 6] was 91.3%. The “Fatal Tox” value [2, 7] was 0/10, the “Max. Body weight loss (%)” value [2, 7] was −1% and the “anti-tumor efficacy (in words)” value ([2]; Compound A1 0.45 mg/kg 2QD p.o. (28 treatment days), combination with paclitaxel 20 mg/kg i.v. (37 treatment days)) was “no effect on tumor growth”. For the same molecule, the T/C weight ([2]; mean final tumor weight, Compound A1 0.45 mg/kg 2QD 2on/5off p.o.) was 1.34, the T/C area ([2]; relative mean tumor area, 28 treatment days, Compound A1 0.45 mg/kg 2QD 2on/5off p.o., paclitaxel 20 mg/kg QD 1on/6off i.v.) was 1.27 and the “histopathological phenotype of tumor tissue” value [3] was “induction of a pleomorphic phenotype, including multinuclearity”. For the same molecule, the “Fatal Tox” value [4, 8] was 0/8, the “Max. Body weight loss (%)” value [4, 8] was −3% and the “anti-tumor efficacy (in words)” value ([4]; Compound A1 2 mg/kg 2QD p.o. (20 treatment days), combination with docetaxel 15 mg/kg i.v. (42 treatment days)) was “weak efficacy”. The T/C weight ([4]; mean final tumor weight, Compound A1 2 mg/kg 2QD 2on/5off p.o.) was 1.01, the T/C area ([4]; relative mean tumor area, 20 treatment days, Compound A1 2 mg/kg 2QD 2on/5off p.o., docetaxel 15 mg/kg QD 1on/6off i.v.) was 0.89 and the “anti-tumor efficacy (in words)” value [5] was “weak single-agent efficacy”.
